Assay results reported in ChEMBL document CHEMBL2034891, “Discovery, design and synthesis of Y-shaped peroxisome proliferator-activated receptor δ agonists as potent anti-obesity agents in vivo” (Eur J Med Chem, 2012).
Active and inactive are the calls of the source. The calls are words filed in the database; no cut-off is given here.

Columns and labels:
[1] = Volume of distribution at steady state in ICR mouse at 1 mg/kg, iv; type: ADME, organism-based; design: dose 1 mg/kg, route intravenous; settings: in vivo, read-out: Vdss
Homo sapiens = species on record: Homo sapiens; experiment: Selectivity ratio of EC50 for human PPARalpha to EC50 for human PPARdelta
[2] = Oral bioavailability in ICR mouse at 10 mg/kg; type: ADME, organism-based; settings: in vivo
[3] = molecular target: T1, Peroxisome proliferator-activated receptor gamma (Homo sapiens, UniProt P37231); experiment: Transactivation activity at human PPARgamma expressed in african green monkey CV1 cells after 24 hrs by luciferase reporter gene assay; type: cell-based, CV-1
T1 sequence (P37231 whole entry): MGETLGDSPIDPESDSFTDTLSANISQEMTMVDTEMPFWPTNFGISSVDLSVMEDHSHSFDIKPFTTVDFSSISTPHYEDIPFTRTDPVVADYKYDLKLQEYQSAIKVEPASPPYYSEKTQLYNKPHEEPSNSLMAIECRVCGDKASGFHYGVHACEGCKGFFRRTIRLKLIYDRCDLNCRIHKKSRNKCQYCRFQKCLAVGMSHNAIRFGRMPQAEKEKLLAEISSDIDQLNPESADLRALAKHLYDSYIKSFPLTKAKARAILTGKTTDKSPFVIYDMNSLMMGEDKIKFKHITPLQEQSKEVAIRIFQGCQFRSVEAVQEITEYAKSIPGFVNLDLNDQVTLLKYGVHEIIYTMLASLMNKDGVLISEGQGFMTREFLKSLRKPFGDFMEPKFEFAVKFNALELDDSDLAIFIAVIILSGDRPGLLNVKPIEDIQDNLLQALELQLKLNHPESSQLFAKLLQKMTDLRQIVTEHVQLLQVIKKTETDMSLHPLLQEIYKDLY

Mus musculus [4] = experiment: Antiobesity activity in high-fat diet fed C57BL/6 mouse assessed as decrease in serum free fatty acid level at 10 mg/kg, po QD relative to vehicle-treated control; type: functional; design: scale not given: the % may be the effect or the level left
[5] = Tmax in ICR mouse at 10 mg/kg, po; type: ADME, organism-based; design: dose 10 mg/kg, route oral; settings: in vivo
Mus musculus [6] = experiment: AUMC in ICR mouse at 1 mg/kg, iv; type: ADME, organism-based; design: dose 1 mg/kg, route intravenous; settings: in vivo
[7] = Tmax in ICR mouse at 1 mg/kg, iv; type: ADME, organism-based; design: dose 1 mg/kg, route intravenous; settings: in vivo
[8] = Mean residence time in ICR mouse at 1 mg/kg, iv; type: ADME, organism-based; design: dose 1 mg/kg, route intravenous; settings: in vivo
[9] = Terminal half life in ICR mouse at 10 mg/kg, po; type: ADME, organism-based; design: dose 10 mg/kg, route oral; settings: in vivo, read-out: beta t1/2 (converted)
Mus musculus [10] = experiment: Volume of distribution at steady state in ICR mouse at 10 mg/kg, po; type: ADME, organism-based; design: dose 10 mg/kg, route oral; settings: in vivo
Mus musculus [11] = experiment: Antiobesity activity in high-fat diet fed C57BL/6 mouse assessed as absence of fatty liver at 10 mg/kg, po QD hematoxylin and eosin staining-based histological analysis; type: functional, organism-based; design: dose 10 mg/kg
[12] = Cmax in ICR mouse at 10 mg/kg, po; type: ADME, organism-based; design: dose 10 mg/kg, route oral; settings: in vivo
Mus musculus [13] = experiment: Antiobesity activity in high-fat diet fed C57BL/6 mouse assessed as decrease in lipid accumulation on brown adipose tissue at 10 mg/kg, po QD hematoxylin and eosin staining-based histological analysis; type: functional, organism-based; design: dose 10 mg/kg
[14] = Clearance in ICR mouse at 1 mg/kg, iv; type: ADME, organism-based; design: dose 1 mg/kg, route intravenous; settings: in vivo
[15] = molecular target: T2, Peroxisome proliferator-activated receptor delta (Homo sapiens, UniProt Q03181); experiment: Transactivation activity at human PPARdelta expressed in african green monkey CV1 cells after 24 hrs by luciferase reporter gene assay; type: cell-based, CV-1
T2 sequence (Q03181 whole entry): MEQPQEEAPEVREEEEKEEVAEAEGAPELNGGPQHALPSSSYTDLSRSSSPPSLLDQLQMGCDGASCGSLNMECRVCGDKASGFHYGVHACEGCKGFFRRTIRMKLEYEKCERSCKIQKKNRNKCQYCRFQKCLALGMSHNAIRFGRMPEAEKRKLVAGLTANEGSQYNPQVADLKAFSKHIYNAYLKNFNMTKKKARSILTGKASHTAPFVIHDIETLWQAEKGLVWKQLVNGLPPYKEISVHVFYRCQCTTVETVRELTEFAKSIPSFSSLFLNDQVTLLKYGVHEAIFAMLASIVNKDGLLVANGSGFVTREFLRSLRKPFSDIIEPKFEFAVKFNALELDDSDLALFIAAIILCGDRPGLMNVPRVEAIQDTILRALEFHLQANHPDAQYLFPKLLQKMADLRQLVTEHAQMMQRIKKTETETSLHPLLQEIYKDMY

[16] = AUC in ICR mouse at 1 mg/kg, iv; type: ADME, organism-based; design: dose 1 mg/kg, route intravenous; settings: plasma
[17] = molecular target: T3, Peroxisome proliferator-activated receptor alpha (Homo sapiens, UniProt Q07869); experiment: Transactivation activity at human PPARalpha expressed in african green monkey CV1 cells after 24 hrs by luciferase reporter gene assay; type: cell-based, CV-1
T3 sequence (Q07869 whole entry): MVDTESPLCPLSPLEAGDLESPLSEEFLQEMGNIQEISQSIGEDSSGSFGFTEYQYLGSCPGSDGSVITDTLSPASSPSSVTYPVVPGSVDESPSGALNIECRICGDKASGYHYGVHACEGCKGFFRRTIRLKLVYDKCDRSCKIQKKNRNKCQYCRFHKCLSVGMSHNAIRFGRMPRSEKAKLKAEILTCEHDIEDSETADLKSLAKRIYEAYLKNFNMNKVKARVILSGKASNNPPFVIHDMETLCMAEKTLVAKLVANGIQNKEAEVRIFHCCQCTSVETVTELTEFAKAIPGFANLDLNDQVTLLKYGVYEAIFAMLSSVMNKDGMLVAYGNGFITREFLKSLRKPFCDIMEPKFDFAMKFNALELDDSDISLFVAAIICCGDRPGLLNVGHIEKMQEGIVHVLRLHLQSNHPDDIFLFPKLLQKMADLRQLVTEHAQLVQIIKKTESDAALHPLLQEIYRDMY

[18] = Terminal half life in ICR mouse at 1 mg/kg, iv; type: ADME, organism-based; design: dose 1 mg/kg, route intravenous; settings: in vivo, read-out: beta t1/2 (converted)
Mus musculus [19] = experiment: Dose normalized AUC in ICR mouse at 1 mg/kg, iv; type: ADME, organism-based; design: dose 1 mg/kg, route intravenous; settings: in vivo
Mus musculus [20] = experiment: Toxicity in high-fat diet fed C57BL/6 mouse assessed as decrease in food intake at 10 mg/kg, po QD relative to control; type: organism-based; design: dose 10 mg/kg, route oral; settings: in vivo
Mus musculus [21] = experiment: Antiobesity activity in high-fat diet fed C57BL/6 mouse assessed as decrease in serum triglyceride level at 10 mg/kg, po QD relative to vehicle-treated control; type: functional; design: scale not given: the % may be the effect or the level left
[22] = Clearance in ICR mouse at 10 mg/kg, po; type: ADME, organism-based; design: dose 10 mg/kg, route oral; settings: in vivo
Mus musculus [23] = experiment: Antiobesity activity in high-fat diet fed C57BL/6 mouse assessed as decrease in lipid accumulation on white adipose tissue at 10 mg/kg, po QD hematoxylin and eosin staining-based histological analysis; type: functional, organism-based; design: dose 10 mg/kg
[24] = AUC in ICR mouse at 10 mg/kg, po; type: ADME, organism-based; design: dose 10 mg/kg, route oral; settings: plasma
Mus musculus [25] = experiment: Dose normalized AUC in ICR mouse at 10 mg/kg, po; type: ADME, organism-based; design: dose 10 mg/kg, route oral; settings: in vivo
[26] = Cmax in ICR mouse at 1 mg/kg, iv; type: ADME, organism-based; design: dose 1 mg/kg, route intravenous; settings: in vivo
Mus musculus [27] = experiment: AUMC in ICR mouse at 10 mg/kg, po; type: ADME, organism-based; design: dose 10 mg/kg, route oral; settings: in vivo
[28] = Mean residence time in ICR mouse at 10 mg/kg, po; type: ADME, organism-based; design: dose 10 mg/kg, route oral; settings: in vivo
Mus musculus [29] = experiment: Antiobesity activity in high-fat diet fed C57BL/6 mouse assessed as increase in body weight at 10 mg/kg, po QD measured after 78 days (reference value: 102%); type: functional
[30] = molecular target: T2, Peroxisome proliferator-activated receptor delta; experiment: Binding affinity at human GST-tagged PPARdelta ligand binding domain after 1 hr by time-resolved FRET analysis

## Cc1cc(SC(Cc2ccccc2)c2sc(-c3ccc(C(F)(F)F)cc3)nc2C)ccc1OCC(=O)O (stereo not drawn)
[1]
  Vd: 0.131 L/kg
Homo sapiens
  Ratio EC50: 10000
[2]
  bioavailability: 88%
[3]
  EC50: > 10000 nM
Mus musculus [4]
  Activity: 26%
[5]
  Tmax: 2.75 h
Mus musculus [6]
  AUMC: 243 hr.hr.ug/ml
[7]
  Tmax: 0.33 h
[8]
  MRT: 5.98 h
[9]
  half-life: 5.27 h
Mus musculus [10]
  Vdss: 0.212 L/kg
Mus musculus [11]
  Activity: Active
[12]
  Cmax: 37900 ng/mL
Mus musculus [13]
  Activity: Active
[14]
  clearance: 0.41 mL/min/kg
[15]
  EC50: 1.6 nM
[16]
  AUC: 40.6 µg·h/mL
[17]
  EC50: > 10000 nM
[18]
  half-life: 3.69 h
Mus musculus [19]
  AUC/dose: 40.6 kg·µg·h/mL/mg
Mus musculus [20]
  Activity: Non-toxic
Mus musculus [21]
  Activity: 29%
[22]
  CL/F: 0.47 mL/min/kg
Mus musculus [23]
  Activity: Active
[24]
  AUC: 357 µg·h/mL
Mus musculus [25]
  AUC/dose: 35.7 kg·µg·h/mL/mg
[26]
  Cmax: 8980 ng/mL
Mus musculus [27]
  AUMC: 3340 hr.hr.ug/ml
[28]
  MRT: 9.32 h
Mus musculus [29]
  Activity: 60%
[30]
  EC50: 13 nM

## Cc1cc(SC(CCCCCCCc2ccccc2)c2sc(-c3ccc(C(F)(F)F)cc3)nc2C)ccc1OCC(=O)O (stereo not drawn)
[3]
  EC50: > 10000 nM
[17]
  EC50: > 10000 nM

## Cc1cc(SC(Cc2ccc([N+](=O)[O-])cc2)c2sc(-c3ccc(C(F)(F)F)cc3)nc2C)ccc1OCC(=O)O (stereo not drawn)
[3]
  EC50: > 10000 nM
[15]
  EC50: 60 nM
[17]
  EC50: > 10000 nM

## Cc1cc(SC(c2sc(-c3ccc(C(F)(F)F)cc3)nc2C)C(c2ccccc2)c2ccccc2)ccc1OCC(=O)O (stereo not drawn)
[3]
  EC50: > 10000 nM
[15]
  EC50: 523 nM
[17]
  EC50: > 10000 nM

## COc1ccc(CC(Sc2ccc(OCC(=O)O)c(C)c2)c2sc(-c3ccc(C(F)(F)F)cc3)nc2C)cc1 (stereo not drawn)
[3]
  EC50: > 10000 nM
[15]
  EC50: 4.8 nM
[17]
  EC50: > 10000 nM

## Cc1cc(SC(C)c2sc(-c3ccc(C(F)(F)F)cc3)nc2C)ccc1OCC(=O)O (stereo not drawn)
[3]
  EC50: > 10000 nM
[15]
  EC50: 1.8 nM
[17]
  EC50: 136 nM

## Cc1cc(SC(Cc2cc(F)ccc2F)c2sc(-c3ccc(C(F)(F)F)cc3)nc2C)ccc1OCC(=O)O (stereo not drawn)
Homo sapiens
  Ratio EC50: 10000
[3]
  EC50: > 10000 nM
[15]
  EC50: 16.7 nM
[17]
  EC50: > 10000 nM

## Cc1cc(SC(CCc2ccccc2)c2sc(-c3ccc(C(F)(F)F)cc3)nc2C)ccc1OCC(=O)O (stereo not drawn)
[3]
  EC50: > 10000 nM
[15]
  EC50: 2.6 nM
[17]
  EC50: > 10000 nM

## Cc1cc(SC(Cc2cccc3ccccc23)c2sc(-c3ccc(C(F)(F)F)cc3)nc2C)ccc1OCC(=O)O (stereo not drawn)
[3]
  EC50: > 10000 nM
[15]
  EC50: 490 nM
[17]
  EC50: > 10000 nM

## Cc1cc(SC(Cc2c(F)c(F)c(F)c(F)c2F)c2sc(-c3ccc(C(F)(F)F)cc3)nc2C)ccc1OCC(=O)O (stereo not drawn)
Homo sapiens
  Ratio EC50: 10000
[3]
  EC50: > 10000 nM
[15]
  EC50: 8.1 nM
[17]
  EC50: > 10000 nM

## Cc1cc(SC(CCCc2ccccc2)c2sc(-c3ccc(C(F)(F)F)cc3)nc2C)ccc1OCC(=O)O (stereo not drawn)
[3]
  EC50: > 10000 nM
[17]
  EC50: > 10000 nM

## Cc1cc(SC(Cc2ccc(C(F)(F)F)cc2)c2sc(-c3ccc(C(F)(F)F)cc3)nc2C)ccc1OCC(=O)O (stereo not drawn)
[3]
  EC50: > 10000 nM
[15]
  EC50: 9.4 nM
[17]
  EC50: > 10000 nM

## Cc1cc(SC(Cc2c(Cl)cccc2Cl)c2sc(-c3ccc(C(F)(F)F)cc3)nc2C)ccc1OCC(=O)O (stereo not drawn)
Homo sapiens
  Ratio EC50: 10000
[3]
  EC50: > 10000 nM
[15]
  EC50: 2.8 nM
[17]
  EC50: > 10000 nM
